Test results reported in ChEMBL document CHEMBL3745700, “Functionalised isocoumarins as antifungal compounds: Synthesis and biological studies” (Bioorg Med Chem Lett, 2016).
≈ marks a conversion by molar mass, not a printed value. Calls of active or inactive are those of the source. The calls are words filed in the database; no cut-off is given here.

How the values were obtained:
Candida albicans [1] = test: Antifungal activity against Candida albicans ATCC 10231 assessed as inhibition of hyphal formation at MIC70 after 36 hrs by microscopic analysis; format: functional, organism-based
MRC5 = test: Cytotoxicity against human MRC5 cells after 48 hrs by MTT assay; format: cell-based; conditions: MRC5, 48 h
Candida albicans [2] = test: Antifungal activity against Candida albicans ATCC 10231 by broth microdilution method; format: functional
Pichia kudriavzevii = test: Antifungal activity against azole-resistant Candida krusei ATCC 6258 by broth microdilution method; format: functional
Candida parapsilosis = test: Antifungal activity against azole-resistant Candida parapsilosis CA-27 clinical isolate by broth microdilution method; format: functional
Candida albicans [3] = test: Binding affinity to Candida albicans ATCC 10231 DNA assessed as degradation at 25 ug/ml after 12 hrs by agarose gel electrophoresis
[4] = Hemolytic activity in Sheep RBC at MIC and IC50 after 1 hr by multiplate reader analysis; format: ADME, cell-based, Ovis aries; conditions: erythrocyte
Candida albicans [5] = test: Antifungal activity against Candida albicans ATCC 10231 assessed as growth inhibition at 250 ug/disc by disc diffusion method; format: functional, organism-based
Candida albicans [6] = test: Antifungal activity against Candida albicans ATCC 10231 assessed as inhibition of biofilm formation at MIC70 after 48 hrs by propidium iodide/Concanavaline A-FITC staining-based fluorescence microscopic analysis; format: functional, organism-based
Candida albicans [7] = test: Stimulation of hyphal formation in Candida albicans ATCC 10231 at MIC70 after 36 hrs by microscopic analysis; format: functional, organism-based

SMILES | inhibition (Candida albicans [1]) | IC50 (MRC5) [µg/mL] | MIC (Candida albicans [2]) [µg/mL] | MIC (Pichia kudriavzevii) | MIC (Candida parapsilosis; Lodderomyces parapsilosis) [µg/mL] | Activity (Candida albicans [3]) | Activity [4] | growth inhibition (GI) (Candida albicans [5]) | inhibition (Candida albicans [6]) | MIC (Candida parapsilosis) | Activity (Candida albicans [7])
O=c1oc(-n2cccn2)cc2ccccc12 | Active | 30 (≈ 141 µM) | 31.2 (≈ 147 µM) | > 500 µg/mL | > 500 | inactive | Non-toxic |  |  |  | 
COC(=O)/C=C/c1cc2ccccc2c(=O)o1 | Active | 30 (≈ 130 µM) | 500 (≈ 2170 µM) |  |  | inactive | Non-toxic | Active |  |  | 
O=c1oc(-n2cc(Cl)cn2)cc2ccccc12 | Active | 15 (≈ 60.8 µM) | 5 (≈ 20.3 µM) | 125 µg/mL (≈ 507 µM) | > 500 |  | Non-toxic |  |  |  | 
O=c1oc(-n2cncn2)cc2ccccc12 | Active | 40 (≈ 188 µM) | 20 (≈ 93.8 µM) | 125 µg/mL (≈ 586 µM) | > 500 | inactive | Non-toxic |  | Active |  | 
C[C@@H](c1ncncc1F)[C@](O)(Cn1cncn1)c1ccc(F)cc1F [VORICONAZOLE] | Active | 40 (≈ 115 µM) | 7.8 (≈ 22.3 µM) | inactive |  |  |  |  |  | inactive | 
O=c1oc(Br)cc2ccccc12 | Active | 20 (≈ 88.9 µM) | 15.6 (≈ 69.3 µM) | 3.9 µg/mL (≈ 17.3 µM) | 62.5 (≈ 278 µM) | inactive | Non-toxic | Active |  |  | 
O=c1oc(-n2c(C(F)(F)F)nc3ccccc32)cc2ccccc12 |  | 15 (≈ 45.4 µM) | 150 (≈ 454 µM) |  |  |  |  |  |  |  | Active
O=c1oc(-n2cnnn2)cc2ccccc12 | Active | 10 (≈ 46.7 µM) | 15.6 (≈ 72.8 µM) | 62.5 µg/mL (≈ 292 µM) | 125 (≈ 584 µM) | inactive | Non-toxic |  |  |  | 
CCOC(=O)c1cn(-c2cc3ccccc3c(=O)o2)cn1 |  | 25 (≈ 87.9 µM) | 62.5 (≈ 220 µM) | > 500 µg/mL | > 500 |  |  |  | Active |  | Active
O=c1oc(-n2ccnc2)cc2ccccc12 | Active | 25 (≈ 118 µM) | 62.5 (≈ 295 µM) |  |  | inactive | Non-toxic |  |  |  | 
C[Si](C)(C)C#Cc1cc2ccccc2c(=O)o1 |  | 30 (≈ 124 µM) | 250 (≈ 1030 µM) |  |  | inactive | Non-toxic | Active |  |  | Active
